The values that follow come from PubChem BioAssay AID588821 (The Scripps Research Institute Molecular Screening Center, 2011).

Active and inactive are the calls of the source.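 Rule for the calls: active = IC50 at or below 10 µM; inactive = IC50 above 10 µM.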

The assay has as its system HEK293T GAL4DBD-only luciferase reporter, luminescence counterscreen. The assay can be described thus: compounds suppressing UAS/Gal4-driven luciferase signal – cell-based, luminescence, HEK293T, empty GAL4DBD, dose response, counter-screen for DAX1 inhibitor project, late-stage follow-up (AID 588821). (In general: Counterscreens check selectivity or assay interference.)
Take `COc1ccc(OC)c(C(C)NC(=O)c2ccc(Cl)cc2)c1` (centres undefined): the IC50 is > 69.5 µM (inactive).

As to `COc1ccc(OC)c(C(C)NC(=O)c2ccccc2Cl)c1` (centres undefined), the IC50 was > 69.5 µM (inactive). The value for `COc1ccc(OC)c(C(C)NC(=O)c2cccc(C)c2)c1` (centres undefined) was > 69.5 µM (inactive); that for `COc1ccc(OC)c(C(C)NC(=O)c2ccc(C)cc2)c1` (centres undefined) was > 69.5 µM (inactive). The result for `COc1ccc(OC)c(C(C)NC(=O)c2ccccc2)c1` (centres undefined) reads > 69.5 µM (inactive). The result for `Cn1c(=O)n(C)c2cc(C(=O)Nc3ccc4c(c3)OCCO4)ccc21` reads > 69.5 µM (inactive); that for `COc1ccc(OC)c(C(C)NC(=O)c2cccc(F)c2)c1` (centres undefined), > 69.5 µM (inactive). Take `O=C(Nc1ccc2c(c1)OCO2)c1cccs1`: the IC50 is > 69.5 µM (inactive). The value for `O=C(Nc1ccc2c(c1)OCO2)c1ccc(C2SCC(=O)N2Cc2ccccc2)cc1` (centres undefined) was > 69.5 µM (inactive).

Turning to `COc1ccc(OC)c(C(C)NC(=O)c2ccccc2F)c1` (centres undefined), the IC50 was > 69.5 µM (inactive).

With `Cc1occc1C(=O)Nc1ccc2c(c1)OCO2`, the IC50 was > 69.5 µM (inactive).

With `Cn1c(=O)n(C)c2cc(C(=O)Nc3ccc4c(c3)OCO4)ccc21`, the IC50 is > 69.5 µM (inactive). The value for `COc1ccc(OC)c(C(C)NC(=O)c2c(F)cccc2Cl)c1` (centres undefined) was > 69.5 µM (inactive); that for `COc1ccc(OC)c(C(C)NC(=O)c2ccccc2C)c1` (centres undefined) was > 69.5 µM (inactive). The result for `COc1ccc(OC)c(C(C)NC(=O)c2ccc3c(c2)OCCO3)c1` (centres undefined) reads > 69.5 µM (inactive). `COc1ccc(OC)c(C(C)NC(=O)c2cccc3ccccc23)c1` (centres undefined): the IC50 is > 69.5 µM (inactive). The value for `O=C(Cc1cccs1)Nc1ccc2c(c1)OCO2` was > 69.5 µM (inactive); that for `COc1ccc(OC)c(C(C)NC(=O)c2ccc(C(C)(C)C)cc2)c1` (centres undefined) was > 69.5 µM (inactive).

As to `O=C(Nc1ccc2c(c1)OCO2)c1ccc2ccccc2c1`, the half-inhibitory concentration (IC50) is 0.202 µM.

Take `COc1cccc(C(=O)NC(C)c2cc(OC)ccc2OC)c1` (centres undefined): the IC50 was > 69.5 µM (inactive).

As to `CSc1ccccc1C(=O)Nc1ccc2c(c1)OCCO2`, the IC50 was > 69.5 µM (inactive).

`O=C(Nc1ccc2c(c1)OCO2)c1ccc(C2SCC(=O)N2Cc2ccco2)cc1` (centres undefined): the IC50 was > 69.5 µM (inactive). The value for `CSc1ccccc1C(=O)Nc1ccc2c(c1)OCO2` was > 69.5 µM (inactive); that for `COc1ccc(OC)c(C(C)NC(=O)c2ccc(F)cc2)c1` (centres undefined) was > 69.5 µM (inactive).

By IC50 is commonly meant the concentration that inhibits the measured activity by half.
